Measured values as given in article PMC3678512, “Synthesis and physicochemical characterization of novel phenotypic probes targeting the nuclear factor-kappa B signaling pathway” (Beilstein Journal of Organic Chemistry, 2013).
Converted amounts (≈) assume the structure as drawn. Where two headings read alike, the source gives them in different places.

What was measured:
353 kinases = assay: KINOMEscan (DiscoveRx) selectivity profiling, panel; type: binding; conditions: 10 uM; out of the 353 kinases surveyed
Description: (§1) This probe was discovered after two separate screening campaigns totaling ~110,000 compounds.

TLK1 = molecular target: T1, TLK1 (Homo sapiens, UniProt Q9UKI8); assay: KINOMEscan (DiscoveRx) selectivity profiling, TLK1; type: binding
T1 construct: purchased DiscoveRx
T1 sequence (Q9UKI8 1-766): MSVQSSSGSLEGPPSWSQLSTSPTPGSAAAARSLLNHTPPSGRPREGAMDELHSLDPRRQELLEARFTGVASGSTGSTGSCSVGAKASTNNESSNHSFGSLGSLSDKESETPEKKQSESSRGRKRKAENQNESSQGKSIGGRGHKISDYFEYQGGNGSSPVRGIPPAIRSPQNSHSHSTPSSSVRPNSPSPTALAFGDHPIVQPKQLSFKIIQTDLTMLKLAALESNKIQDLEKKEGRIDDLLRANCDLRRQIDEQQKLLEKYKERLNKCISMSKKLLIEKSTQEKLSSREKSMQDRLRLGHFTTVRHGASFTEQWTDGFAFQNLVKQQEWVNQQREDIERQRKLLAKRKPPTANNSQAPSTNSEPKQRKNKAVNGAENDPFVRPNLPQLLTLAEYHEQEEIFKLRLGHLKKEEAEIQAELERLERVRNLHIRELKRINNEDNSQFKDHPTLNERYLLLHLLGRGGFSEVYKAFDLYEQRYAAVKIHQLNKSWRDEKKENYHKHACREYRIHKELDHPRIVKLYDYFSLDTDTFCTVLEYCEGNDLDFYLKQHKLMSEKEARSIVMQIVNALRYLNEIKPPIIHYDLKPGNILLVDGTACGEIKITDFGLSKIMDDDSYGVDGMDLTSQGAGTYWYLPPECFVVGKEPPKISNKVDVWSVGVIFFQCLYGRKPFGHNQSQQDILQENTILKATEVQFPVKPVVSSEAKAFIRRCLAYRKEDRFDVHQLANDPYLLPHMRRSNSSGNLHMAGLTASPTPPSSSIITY
Description: as §1

Raf = assay: KINOMEscan (DiscoveRx) selectivity profiling, Raf; type: binding; conditions: 10 uM
Description: as §1

JAK2 = molecular target: T2, JAK2 (Homo sapiens, UniProt O60674); assay: KINOMEscan (DiscoveRx) selectivity profiling, JAK2; type: binding
T2 construct: purchased DiscoveRx
T2 sequence (O60674 whole entry): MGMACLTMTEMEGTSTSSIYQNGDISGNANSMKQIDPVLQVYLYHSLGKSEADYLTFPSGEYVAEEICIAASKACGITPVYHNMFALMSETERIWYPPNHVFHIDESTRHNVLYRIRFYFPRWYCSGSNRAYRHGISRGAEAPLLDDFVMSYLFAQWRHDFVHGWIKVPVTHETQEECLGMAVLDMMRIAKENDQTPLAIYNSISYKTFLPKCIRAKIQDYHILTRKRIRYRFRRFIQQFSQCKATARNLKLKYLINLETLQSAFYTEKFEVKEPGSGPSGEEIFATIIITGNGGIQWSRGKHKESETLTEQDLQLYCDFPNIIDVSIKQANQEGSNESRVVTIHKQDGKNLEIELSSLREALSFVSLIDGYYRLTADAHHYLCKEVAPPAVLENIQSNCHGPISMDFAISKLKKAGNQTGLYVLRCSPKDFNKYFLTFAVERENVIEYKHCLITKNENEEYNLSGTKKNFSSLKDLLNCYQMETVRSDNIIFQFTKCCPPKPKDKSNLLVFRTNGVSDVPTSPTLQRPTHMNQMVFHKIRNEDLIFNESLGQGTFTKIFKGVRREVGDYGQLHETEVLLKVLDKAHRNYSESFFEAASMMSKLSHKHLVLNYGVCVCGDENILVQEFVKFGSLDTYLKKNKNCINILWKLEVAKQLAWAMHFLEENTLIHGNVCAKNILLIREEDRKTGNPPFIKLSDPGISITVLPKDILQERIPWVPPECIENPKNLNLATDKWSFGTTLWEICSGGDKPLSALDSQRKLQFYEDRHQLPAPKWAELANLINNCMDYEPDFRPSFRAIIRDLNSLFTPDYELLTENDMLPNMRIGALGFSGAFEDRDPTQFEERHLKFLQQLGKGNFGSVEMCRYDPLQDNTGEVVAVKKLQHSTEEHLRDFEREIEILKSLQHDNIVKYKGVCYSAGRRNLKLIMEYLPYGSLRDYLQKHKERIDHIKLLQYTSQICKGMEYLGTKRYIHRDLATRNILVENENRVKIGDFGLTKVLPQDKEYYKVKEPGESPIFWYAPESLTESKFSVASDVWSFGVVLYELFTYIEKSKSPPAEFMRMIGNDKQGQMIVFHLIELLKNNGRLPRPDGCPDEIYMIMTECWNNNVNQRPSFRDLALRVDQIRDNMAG
Description: as §1

[1] = test system: NF-κB activation in HEK 293T cells; assay: NF-κB reporter gene assay in HEK 293T cells; type: cell-based, human; conditions: for Selectivity over NF-κB activation in HEK 293T cells: relative to 697 pre-B cell line potency
Description: (§2) Phenotypic screening for noncanonical NF-κB pathway selective inhibitors of IL-8 production in HEK 293, HEK 293T (ML029) and 697 pre-B cells (ML236 and ML237): Most pathways for NF-κB activation converge on the IκB kinases (IKKs), and more than nine signaling routes have been identified. While IKKs therefore represent attractive targets for drug discovery programs, the selectivity envisioned for an acceptable therapeutic index has remained elusive as inhibitors of IKKs indiscriminately suppress all known NF-κB activation pathways. Within this project, new probes were sought that were not active via the currently known receptor-driven pathways and IκB kinases, but attenuated NF-κB transcriptional activity as measured by a luciferase-based reporter gene assay with validation using a panel of known receptor and kinase-based counter screens.
(§3) Therefore, an HTS campaign was initiated to identify compounds active in these specific cell subtypes by using the established HTS NF-κB reporter gene assay format. This included screening of a larger (~330,600 compound) MLSMR collection to ensure identification of additional chemical scaffolds not previously available. From this campaign two new cell-active NF-κB inhibitors were derived that were both selective against the NF-κB pathway induced by known PKC activators (phorbol myristic acetate (PMA)/ionomycin) and were selective toward the 697 pre-B cell line. It is interesting to note that no compounds meeting probe selectivity criteria were identified within the T cell (HEK 293T) specific assay. The first oxadiazole-based probe ML236 (8) was potent (0.035 μM) in the 697 pre-B cell line and >400-fold selective over both the NF-κB activation in HEK 293T cells and against TNFα-mediated NF-κB activation. In comparison, the second oxazole-based probe 12 is also potent (0.2 μM) in the 697 pre-B cell line and >400-fold selective over both the NF-κB activation in HEK 293T cells and against TNFα mediated NF-κB activation as measured in our reporter gene assay format.

[2] = test system: NF-κB activation in 697 pre-B cell line; assay: NF-κB reporter gene assay in 697 pre-B cells (PMA/ionomycin induced); type: cell-based; conditions: read-out: Potency in 697 pre-B cell line (NF-κB reporter)
Description: as §2, §3

Aqueous solubility = type: physicochemical; conditions: for Solubility (in words): across pH 5 to 7.4
Method: (§4) The probes were evaluated using known in vitro ADME/T assays to understand their overall pharmacological properties (Table 2). […] The PAMPA (parallel artificial membrane permeability assay) assay is used as an in vitro model of passive, transcellular permeability. An artificial membrane immobilized on a filter is placed between a donor and acceptor compartment. […] It is not yet known whether it represents a species specific CPY450 inhibitor.

[3] = PAMPA (parallel artificial membrane permeability assay); type: in vitro ADME; conditions: for PAMPA Pe, donor pH 5.0: donor pH 5.0, acceptor pH 7.4, compound at 50 μM; for PAMPA Pe, donor pH 6.2: donor pH 6.2, acceptor pH 7.4, compound at 50 μM; for PAMPA Pe, donor pH 7.4: donor pH 7.4, acceptor pH 7.4, compound at 50 μM
Method: as §4

[4] = Hepatic microsome stability, human; type: in vitro ADME; conditions: for Hepatic microsome stability, human (% remaining): compound at 1 μM, 60 min
Method: as §4

[5] = Hepatic microsome stability, mouse; type: in vitro ADME; conditions: compound at 1 μM, 60 min
Method: as §4

[6] = Hepatic toxicity in immortalized human hepatocytes; type: cell-based; conditions: Fa2N-4 immortalized human hepatocytes, read-out: Hepatic toxicity LC50
Method: as §4

[7] = test system: NF-κB transcriptional activity in HEK 293 cells; parameters: method as in PMID 20481485; conditions: NF-κB reporter, read-out: IC50 in the HEK 293 cell assay; cited from earlier work
PKCβ = test system: PKCβ; parameters: method as in PMID 20481485, PMID 20153655; conditions: 4 at concentrations up to 8 μM; cited from earlier work
PKCθ = test system: PKCθ; parameters: method as in PMID 20481485, PMID 20153655; conditions: 4 at concentrations up to 8 μM; cited from earlier work
IKKβ = test system: IKKβ; parameters: method as in PMID 20481485, PMID 20153655; conditions: 4 at concentrations up to 8 μM; cited from earlier work
[8] = test system: TNFα-mediated NF-κB activation; assay: TNFα-mediated NF-κB activation reporter gene assay; type: cell-based; conditions: relative to 697 pre-B cell line potency
Description: as §3

[9] = test system: NOD1 (γ-tri-DAP) dependent IL-8 secretion; assay: NOD1 (γ-tri-DAP) dependent IL-8 secretion; type: cell-based
[10] = test system: NOD2-dependent IL-8 secretion in MCF-7 cells; assay: NOD2-dependent IL-8 secretion in MCF-7 cells; type: cell-based
[11] = test system: TNF-α-dependent IL-8 secretion in MCF-7 cells; assay: TNF-α-dependent IL-8 secretion in MCF-7 cells; type: cell-based
[12] = aqueous medium, pH 6.2, aqueous buffer, read-out: Aqueous solubility pH 6.2
[13] = pH 5.0, read-out: Aqueous solubility pH 5.0
[14] = pH 7.4, read-out: Aqueous solubility pH 7.4
[15] = aqueous medium, aqueous buffer, pH 5.0, read-out: Aqueous solubility pH 5.0
[16] = aqueous medium, pH 7.4, aqueous buffer, read-out: Aqueous solubility pH 7.4

SMILES	IC50 [2] [µM]	Solubility (in words) (Aqueous solubility)	solubility (Aqueous solubility; [12]) [µM]	solubility (Aqueous solubility; [13]) [µM]	solubility (Aqueous solubility; [14]) [µM]	PAMPA Pe, donor pH 5.0 [3]	PAMPA Pe, donor pH 6.2 [3]	PAMPA Pe, donor pH 7.4 [3]	Hepatic microsome stability, human (% remaining) [4] [% remaining]	Hepatic microsome stability, mouse (% remaining) [5] [% remaining]	CC50 [6] [µM]	Suppression of PKCθ (PKCθ)	Suppression of IKKβ (IKKβ)	Selectivity over NF-κB activation in HEK 293T cells [1] [fold]	Selectivity against TNFα-mediated NF-κB activation [8] [fold]	solubility (Aqueous solubility; [15]) [µM]	solubility (Aqueous solubility; [16]) [µM]	also measured
Cc1cc2nc(NCCCO)n(CC(=O)c3cc(C(C)(C)C)c(O)c(C(C)(C)C)c3)c2cc1C [Probe 4]	> 30	good solubility	1.1 (≈ 0.512 µg/mL)	90 (≈ 41.9 µg/mL)	1.5 (≈ 0.698 µg/mL)	299 10^−6 cm/s	710 10^−6 cm/s	441 10^−6 cm/s	26	0.5	> 50	failed to suppress	failed to suppress	–	–	–	–	Number of kinases inhibited >50% (353 kinases): 3; inhibition at 10 µM (TLK1): 70%; Raf inhibition (Raf): 57%; inhibition at 10 µM (JAK2): 53%; IC50 ([1]; Homo sapiens, HEK 293T cells, read-out: Activity in HEK 293T cell line (NF-κB reporter)): > 30 µM; IC50 [7]: 0.07 µM; Suppression of PKCβ (PKCβ): failed to suppress
CNC(=O)CCc1nc(-c2ccc(C(C)(C)C)cc2)no1 [Probe 8]	0.035	good solubility	101 (≈ 29 µg/mL)	–	–	751 10^−6 cm/s	755 10^−6 cm/s	746 10^−6 cm/s	100	4.9	> 50	–	–	> 400	> 400	92 (≈ 26.4 µg/mL)	103 (≈ 29.6 µg/mL)	Metabolic stability in human hepatic microsomes (in words) ([4]; one hour of exposure): no apparent instability
CCOc1ccc(-c2nc(CSCC(=O)NC3CC3)c(C)o2)cc1 [Probe 12]	0.2	good solubility	133 (≈ 46.1 µg/mL)	–	–	513 10^−6 cm/s	541 10^−6 cm/s	59 10^−6 cm/s	22.7	0	> 50	–	–	> 400	> 400	112 (≈ 38.8 µg/mL)	160 (≈ 55.4 µg/mL)	–
Cc1ccc(S(=O)(=O)n2c(N)nc3ccccc32)cc1 [Probe 13]	–	moderate solubility	–	7.0 (≈ 2.01 µg/mL)	7.0 (≈ 2.01 µg/mL)	491 10^−6 cm/s	562 10^−6 cm/s	382 10^−6 cm/s	41.8	0.8	> 50	–	–	–	–	–	–	Inhibition of NOD1 (γ-tri-DAP) dependent IL-8 secretion [9]: selectively inhibited IL-8 secretion; Inhibition of NOD2-dependent IL-8 secretion [10]: neither inhibited; Inhibition of TNF-α-dependent IL-8 secretion [11]: neither inhibited; solubility (Aqueous solubility; pH 6.2, read-out: Aqueous solubility pH 6.2): 5.9 µM (≈ 1.7 µg/mL)
CN[C@@H]1C[C@H]2O[C@@](C)([C@@H]1OC)n1c3ccccc3c3c4c(c5c6ccccc6n2c5c31)C(=O)NC4 [staurosporine, reference compound]	–	–	–	–	–	–	–	–	–	–	–	potent inhibition	potent inhibition	–	–	–	–	–
